Measurements as given in patent publication US20240016788A1, “PHARMACEUTICAL COMPOSITION FOR PREVENTING OR TREATING DIABETIC AND POSTMENOPAUSAL OSTEOPOROSIS, CONTAINING ADIPORON” (PnP Biopharm Co., Ltd., priority 2020, published 2024).

Assays:
Format in all cases: in vivo
[1] = system: type 2 diabetic db/db mice; assay: Immunofluorescence staining and western blot of bone tissue, db/db mice; conditions: adiporon 30 mg/kg/day, 4 weeks
Procedure: A leptin receptor-defective type 2 diabetic animal model (db/db mice) and a normal control group (db/m mice) were used, and the experiment was performed by dividing into 4 groups as follows: non-diabetic control group (dm cont, n=8), non-diabetic adiporon treatment group (dm+AdipoR, n=8), diabetic control group (db cont, n=8) and diabetic adiporon treatment group (db+AdipoR, n=8).
The control group was fed a normal diet, and the adiporon treatment group was fed a diet comprising adiporon (30 mg/kg/day) for 4 weeks from 16 weeks of age. During the experiment, body weight was measured every week, fasting blood glucose was measured using an Accu-Chek meter (Roche Diagnostics, St. Louis, MO) every 2 weeks after blood was collected from the tail vein, and glycated hemoglobin (HbA1c) was measured every 4 weeks using a […] automatic analyzer (Bayer healthcare LLC, IN) after blood was collected from the tail vein. The temperature and humidity of the breeding room were maintained at 20˜25° C. and 50˜60%, respectively, and the lights were turned on and off at 12-hour intervals.
After removing tissues of the femur and L5 lumbar vertebrae, some of them were fixed in 10% formalin for immunostaining and decalcified. Thereafter, after neutralization with 0.5M Phosphate buffer (pH 7.4), washing, and embedding in paraffin. Tissue sections were cut to a thickness of 5 μm, and hematoxylin and eosin staining (H&E staining), trichrome staining, and Safranin O staining were performed. In bone tissue, double immunofluorescence staining method was performed using anti-adiponectin receptor 1/2 antibody, anti-perilipin-1 antibody, anti-RANKL antibody, anti-TNF-α antibody, and ApopTag Fluorescein In Situ Apoptosis Detection Kit (Chemicon International, Temecula, CA) and expression was observed using a confocal microscope.
(§1) Protein was extracted using Pro-Prep Protein Extraction Solution (Intron Biotechnology, Gyeonggi-Do, Korea), and SDS-PAGE (sodium dodecyl sulfate-polyacrylamide gel electrophoresis) was performed. The separated protein was transferred to a nitrocellulose membrane (Amersham Co., Buckinghamshire, England) and treated with Tris buffered saline (in TBS-T: 0.1% Tween-20 in Tris buffer saline, pH 7.5) containing 3% skim milk. After blocking for an hour, the blots were reacted in adiponectin receptor 1/2, total AMPK, phospho-Thr172AMPK, PGC-1α, Nrf-2, SOD1/2, NQO1, HO-1, NOX4, NF-κB and β-actin primary antibody solution, washing, reacting with a secondary antibody against each primary antibody, and then photosensitizing through ECL (Pierce, Rockford IL) to confirm the band. The expression level of each protein was normalized according to β-actin.

[2] = system: ovariectomized C57BL/6 mice; assay: Micro-CT of ilium (femur) and lumbar vertebra 5, ovariectomized mice; conditions: 6 weeks
Procedure: 7 weeks after ovariectomization or sham surgery of 7-week-old C57BL/6 mice, normal feed group (adiporon non-administered group; control group) administration group, 2.5 mg/kg day or 25 mg/kg day, respectively Feed comprising adiporon was consumed for 6 weeks from 14 weeks of age. Body weight was measured every week during the experiment period, and the experiment was conducted after 6 weeks of administration. The imaging was performed with micro-CT (Skyscan 1172, Belgium), the tube voltage was 60 kV, the tube current was 167 uA, 0.5 mm aluminum filtration was used, and the pixel size was 5.9 μm. For the shooting angle, a 2-dimensional image was reconstructed with Nrecon Reconstruction (Skyscan, Belgium). For 3D image analysis, CTAn (Skyscan, Belgium) was used, images were obtained by rotating 360°, and exposure time was 440 ms. A total of 7 types of indicators were used in this invention. BMD (bone mineral density, bone density) was measured based on phantoms of 0.25 g/cm^3 and 0.75 g/cm^3. BV/TV (Bone volume/Total volume, percent bone volume, %) is the ratio of voxels representing the solid region out of the total voxels present in the binarized and surfaced volume of interest, and it means the ratio occupied by bone trabeculae within the volume of interest, and i.s (Interception surfaces, mm2) means the generation of new bone. i.s (Interception surfaces, mm^2) means the creation of new bone. BS/BV (Bone surface/Bone volume, bone specific surface, mm^−1) is the ratio of the voxel surface area to the number of voxels in the binarized solid region within the volume of interest and it means the ratio of the surface area of the trabecular bone to the volume of the trabecular bone. The lower the value, the higher the bone strength. Tb.Th (trabecular thickness, mm) is obtained by averaging the diameters of these spheres, after placing a sphere comprising the corresponding voxel for each voxel representing the solid region within the volume of interest so that the size of the sphere is the largest that includes only the solid region and it means the average thickness of the trabecular bone. After making it possible, it is obtained by averaging the diameters of these spheres, which means the average thickness of the trabecular bone. In the same way, using Tb.Sp (trabecular separation, mm), the average length between trabecular lines and Tb.N (trabecular number, mm^−1) were used to obtain the average number of trabecular lines.

[3] = system: ovariectomized C57BL/6 mice; assay: Western blot of bone tissue, ovariectomized mice; conditions: for Decreased expression of adiponectin-receptor 1/2 (western blot): 6 weeks
Procedure: 7 weeks after ovariectomization or sham surgery of 7-week-old C57BL/6 mice, normal feed group (adiporon non-administered group; control group) administration group, 2.5 mg/kg day or 25 mg/kg day, respectively Feed comprising adiporon was consumed for 6 weeks from 14 weeks of age. Body weight was measured every week during the experiment period, and the experiment was conducted after 6 weeks of administration.
as §1

[4] = vertebrae (lumbar vertebrae 5), adiporon 2.5 mg/kg day
[5] = vertebrae (lumbar vertebrae 5), adiporon 25 mg/kg day
[6] = ilium (femur), adiporon 2.5 or 25 mg/kg day, dose not distinguished
[7] = vertebrae (lumbar vertebrae 5), adiporon 2.5 or 25 mg/kg day, dose not distinguished

Cl.O=C(COc1ccc(C(=O)c2ccccc2)cc1)NC1CCN(Cc2ccccc2)CC1 [adiporon]
normalized: Expression of antioxidant enzymes (Nrf2, NQO1, HO-1, SOD1, SOD2) ([1]; ilium (femur), db/db mice) | Expression of oxidative stress markers (NOX4, NFkB) ([1]; ilium (femur), db/db mice) | Expression of antioxidant enzymes (Nrf2, NQO1, HO-1, SOD1, SOD2) ([1]; lumbar vertebrae 5, db/db mice) | Expression of oxidative stress markers (NOX4, NFkB) ([1]; lumbar vertebrae 5, db/db mice)
restored: Decreased expression of adiponectin-receptor 1/2 (double immunofluorescence staining) ([1]; ilium (femur), db/db mice) | Increase in apoptosis (TUNEL staining-positive) ([1]; ilium (femur), db/db mice) | Increase in inflammatory response (TNF-α) ([1]; ilium (femur), db/db mice) | Increase of adipocytes (perilipin-1 immunofluorescent staining) ([1]; ilium (femur), db/db mice) | Increased expression of RANKL ([1]; ilium (femur), db/db mice) | Increase in apoptosis (TUNEL staining-positive) ([1]; lumbar vertebrae 5, db/db mice) | Increase in inflammatory response (TNF-α) ([1]; lumbar vertebrae 5, db/db mice) | Increase of adipocytes (perilipin-1 immunofluorescent staining) ([1]; lumbar vertebrae 5, db/db mice) | Increased expression of RANKL ([1]; lumbar vertebrae 5, db/db mice) | Decreased expression of adiponectin-receptor 1/2 (western blot) ([3]; ilium (femur), adiporon 2.5 mg/kg day) | Decreased expression of adiponectin-receptor 1/2 (western blot) ([3]; ilium (femur), adiporon 25 mg/kg day) | Decreased expression of adiponectin-receptor 1/2 (western blot) [3, 4] | Decreased expression of adiponectin-receptor 1/2 (western blot) [3, 5]
increased: Activation of adiponectin-receptor 1-AMPK ([1]; ilium (femur), db/db mice) | Expression of PGC1α ([1]; ilium (femur), db/db mice) | Expression of adiponectin-receptor 2-PPARα ([1]; ilium (femur), db/db mice) | Activation of adiponectin-receptor 1-AMPK ([1]; lumbar vertebrae 5, db/db mice) | Expression of PGC1α ([1]; lumbar vertebrae 5, db/db mice) | Expression of adiponectin-receptor 2-PPARα ([1]; lumbar vertebrae 5, db/db mice) | Activation of adiponectin-receptor 1-AMPK [3, 6] | Expression of PGC-1α [3, 6] | Expression of adiponectin-receptor 2-PPARα [3, 6] | Activation of adiponectin-receptor 1-AMPK [3, 7] | Expression of PGC1α [3, 7] | Expression of adiponectin-receptor 2-PPARα [3, 7]
increased and improved: Bone mineral density indicator (micro-CT) ([2]; ilium, adiporon 2.5 mg/kg day) | Bone surface indicator (micro-CT) ([2]; ilium, adiporon 2.5 mg/kg day) | Bone volume indicator (micro-CT) ([2]; ilium, adiporon 2.5 mg/kg day) | Trabecular number indicator (micro-CT) ([2]; ilium, adiporon 2.5 mg/kg day) | Trabecular thickness indicator (micro-CT) ([2]; ilium, adiporon 2.5 mg/kg day) | Bone mineral density indicator (micro-CT) ([2]; ilium, adiporon 25 mg/kg day) | Bone surface indicator (micro-CT) ([2]; ilium, adiporon 25 mg/kg day) | Bone volume indicator (micro-CT) ([2]; ilium, adiporon 25 mg/kg day) | Trabecular number indicator (micro-CT) ([2]; ilium, adiporon 25 mg/kg day) | Trabecular thickness indicator (micro-CT) ([2]; ilium, adiporon 25 mg/kg day) | Bone mineral density indicator (micro-CT) [2, 4] | Bone surface indicator (micro-CT) [2, 4] | Bone volume indicator (micro-CT) [2, 4] | Trabecular number indicator (micro-CT) [2, 4] | Trabecular thickness indicator (micro-CT) [2, 4] | Bone mineral density indicator (micro-CT) [2, 5] | Bone surface indicator (micro-CT) [2, 5] | Bone volume indicator (micro-CT) [2, 5] | Trabecular number indicator (micro-CT) [2, 5] | Trabecular thickness indicator (micro-CT) [2, 5]
reversed: Decreased expression of adiponectin-receptor 1/2 (double immunofluorescence staining) ([1]; lumbar vertebrae 5, db/db mice)
